This passage reports melting point and IC50 results from US6737433B1, “1-N-phenylamino-1H-imidazole derivatives as aromatase inhibitors and pharmaceutical compositions containing them” (Laboratoire Theramex, priority 2002, dated 2004).

Counter-ions that a name gives are not always drawn.

For series [1], the target named is T1, human aromatase (Homo sapiens, UniProt P11511).
T1 construct: The JEG-3 cell line, derived from a human placental choriocarcinoma, is intrinsically very rich in human aromatase; endogenous in cells; host or cells: JEG-3 (human placental choriocarcinoma)
T1 sequence (P11511 1-503): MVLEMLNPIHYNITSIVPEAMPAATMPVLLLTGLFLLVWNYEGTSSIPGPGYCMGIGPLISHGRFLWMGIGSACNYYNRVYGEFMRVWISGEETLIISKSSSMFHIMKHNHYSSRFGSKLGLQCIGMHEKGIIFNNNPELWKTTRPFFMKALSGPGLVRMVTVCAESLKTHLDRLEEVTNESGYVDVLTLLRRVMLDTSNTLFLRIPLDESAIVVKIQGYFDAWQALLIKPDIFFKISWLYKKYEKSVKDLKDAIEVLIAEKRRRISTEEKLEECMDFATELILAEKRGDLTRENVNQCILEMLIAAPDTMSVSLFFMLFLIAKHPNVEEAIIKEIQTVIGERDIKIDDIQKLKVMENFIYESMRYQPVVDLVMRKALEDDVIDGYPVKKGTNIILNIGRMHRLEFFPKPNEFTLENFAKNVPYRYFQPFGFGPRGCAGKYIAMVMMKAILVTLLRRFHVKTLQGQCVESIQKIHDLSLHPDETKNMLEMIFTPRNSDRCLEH
The series can be described thus: Inhibition of human aromatase in vitro in JEG-3 cells (3H-water release from 1β-3H-androstenedione). Format: cell-based. The conditions noted are these: 10 nM 1β-3H-androstenedione, 2 h incubation. How it is done: Stocks of JEG-3 cells are grown up to 80% of confluence as monolayers in plastic flasks in minimum Eagle's medium with 1 g/l glucose and 10% decomplemented fetal calf serum at pH 7.4 and 37° C., under a 5% CO2 atmosphere. Then, 24 hours before aromatase activity measurement, JEG-3 cells are distributed for seeding in 96-well microplates (60,000 to 100,000 viable cells in 100 μl of culture medium per well); 24 hours later, microplates are rinsed and fresh medium containing the radioactive aromatase substrate (1β-^3H-androstenedione, 10 nM) is added together with test compounds dissolved with 1% dimethylsulfoxyde in a test concentration range between 10^−11 and 10^−4 M in a total volume of 150 μl.
Two hours after the beginning of the incubation, 100 μl of the supernatants are transferred to homologous new 96-well microplates. A solution of dextran-coated charcoal (1%) is added in each well (100 μl/well); after standing for 10 minutes on ice, microplates are centrifuged (1500 g) for 10 more minutes at 4° C. All steroids, including the radioactive substrate and the newly biosynthesized estrogens, are trapped complexed by the charcoal; only the ^3H-water specifically formed during aromatisation of 1β-^3H-androstenedione, involving a specific oxidative step removing the 1β-^3H, remains in the supernatant at this stage.
Finally, aromatase activity is expressed in fmoles/μg DNA in 2 hours and aromatase inhibition in percentage of control incubation without inhibitors.

For orientation: melting point means the temperature of the solid-liquid transition. `N#Cc1ccc(N(Cc2ccc(F)cc2)n2ccnc2)cc1` (as salt: hydrochloride) (hydrate or solvate) [Example 14, 4-[N-(1H-imidazol-1-yl)-N-(4-fluorophenylmethyl)amino]benzonitrile] came in with a melting point of 176 to 178 °C.

In turn, `N#Cc1ccc(N(Cc2ccc(Cl)cc2)n2ccnc2)cc1` (as salt: hydrochloride) [Example 7, 4-[N-(1H-imidazol-1-yl)-N-(4-chlorophenylmethyl)amino]benzonitrile] registered a melting point of 190 °C.

As for `COc1ccc(CN(c2ccc(C#N)cc2)n2ccnc2)cc1` (as salt: hydrochloride) [Example 8, 4-[N-(1H-imidazol-1-yl)-N-(4-methoxyphenylmethyl)amino]benzonitrile], the melting point was determined as 178 °C.

The compound `COc1ccc(CN(c2ccc(C#N)cc2)n2ccnc2)cc1F` (as salt: hydrochloride) [Example 9, 4-[N-(1H-imidazol-1-yl)-N-(3-fluoro-4-methoxyphenylmethyl)amino]benzonitrile] displayed a melting point of 190 °C.

`N#Cc1ccc(CN(c2ccc(C#N)cc2)n2ccnc2)cc1` (as salt: hydrochloride) [Example 11, 4-[N-(1H-imidazol-1-yl)-N-(4-cyanophenylmethyl)amino]benzonitrile]: the melting point worked out at 195 °C.

For the compound `COc1ccc(CN(c2ccc(C#N)cc2)n2ccnc2)cc1OC` (as salt: hydrochloride) [Example 12, 4-[N-(1H-imidazol-1-yl)-N-(3,4-dimethoxyphenylmethyl)amino]benzonitrile], the melting point was found to be 167 °C.

`N#Cc1ccc(N(c2ccc(C#N)cc2)n2ccnc2)cc1` (as salt: hydrochloride) [Example 13, 4,4′-[N-(1H-imidazol-1-yl)amino]bis-benzonitrile] gave a melting point of 199 °C.

`N#Cc1ccc(N(Cc2ccc(Br)cc2)n2ccnc2)cc1` (as salt: hydrochloride) [Example 20, 4-[N-(1H-imidazol-1-yl)-N-(4-bromophenylmethyl)amino]benzonitrile]: the melting point was determined as 125 °C.

Usually IC50 stands for the concentration at which inhibition is half-maximal. `N#Cc1ccc(N(c2ccc(C(F)(F)F)cc2)n2ccnc2)cc1` [Example 5, 4-[N-(1H-imidazol-1-yl)-N-(4-trifluoromethylphenyl)amino]benzonitrile]: the IC50 in series [1] was found to be 0.54 ± 0.26 nM.

In series [1], `COc1ccc(CN(c2ccc(C#N)cc2)n2ccnc2)cc1` [Example 8, 4-[N-(1H-imidazol-1-yl)-N-(4-methoxyphenylmethyl)amino]benzonitrile] yielded an IC50 of 0.14 ± 0.05 nM. Against the preceding compound, the IC50 is about 3.9-fold lower.

In series [1], `COc1ccc(CN(c2ccc(C#N)cc2)n2ccnc2)cc1F` [Example 9, 4-[N-(1H-imidazol-1-yl)-N-(3-fluoro-4-methoxyphenylmethyl)amino]benzonitrile] yielded an IC50 of 0.16 ± 0.06 nM.

The compound `Cc1ccc(CN(c2ccc(C#N)cc2)n2ccnc2)cc1` [Example 10, 4-[N-(1H-imidazol-1-yl)-N-(4-methylphenylmethyl)amino]benzonitrile] registered a melting point of 156 °C. For the same compound, inhibition in series [1] was half-maximal at 0.14 ± 0.03 nM (IC50).

With `N#Cc1ccc(N(c2ccc(C#N)cc2)n2ccnc2)cc1` [Example 13, 4,4′-[N-(1H-imidazol-1-yl)amino]bis-benzonitrile], in series [1], the IC50 came out at 0.44 ± 0.04 nM.

On to `CSc1ccc(CN(c2ccc(C#N)cc2)n2ccnc2)cc1` [Example 15, 4-[N-(1H-imidazol-1-yl)-N-(4-methylthiophenylmethyl)amino]benzonitrile], for which the melting point was 128 °C. The compound further had an IC50 in series [1] of 0.21 ± 0.05 nM.

In series [1], `CS(=O)(=O)c1ccc(CN(c2ccc(C#N)cc2)n2ccnc2)cc1` [Example 16, 4-[N-(1H-imidazol-1-yl)-N-(4-methylsulfonylphenylmethyl)amino]benzonitrile] came in with an IC50 of 0.35 ± 0.07 nM.

`N#Cc1ccc(N(Cc2ccc(F)cc2F)n2ccnc2)cc1` [Example 18, 4-[N-(1H-imidazol-1-yl)-N-(2,4-difluorophenylmethyl)amino]benzonitrile] registered a melting point of 149 °C. In series [1], this compound gave an IC50 of 0.14 ± 0.01 nM.

Regarding `N#Cc1ccc(N(Cc2cc(F)cc(F)c2)n2ccnc2)cc1` [Example 19, 4-[N-(1H-imidazol-1-yl)-N-(3,5-difluorophenylmethyl)amino]benzonitrile], the melting point stood at 170 °C. Moreover, the IC50 in series [1] came out at 0.4 ± 0.06 nM.

Regarding `N#Cc1ccc(N(Cc2ccc(Br)cc2)n2ccnc2)cc1` [Example 20, 4-[N-(1H-imidazol-1-yl)-N-(4-bromophenylmethyl)amino]benzonitrile], in series [1], it took 0.22 ± 0.05 nM to reach half-maximal inhibition (IC50).

Compound `N#Cc1ccc(CN(c2ccc(Br)cc2)n2ccnc2)cc1` [Example 21, 4-[N-(1H-imidazol-1-yl)-N-(4-bromophenyl)aminomethyl]benzonitrile] gave a melting point of 138 °C. The IC50 in series [1] was determined as 1.12 ± 0.55 nM.

`Cn1nnc2ccc(N(Cc3ccc(C#N)cc3)n3ccnc3)cc21` [Example 22, 4-[N-(1-methylbenzotriazol-6-yl)-N-(1H-imidazol-1-yl)aminomethyl]benzonitrile] returned a melting point of 184 °C. The IC50 in series [1] was 0.2 ± 0.05 nM.

`N#Cc1ccc(CN(c2ccc(C#N)cc2C(F)(F)F)n2ccnc2)cc1` [Example 23, 4-[N-(1H-imidazol-1-yl)-N-(4-cyanophenylmethyl)amino]-3-trifluoromethylbenzonitrile]: the melting point was determined as 226 °C. This compound displayed an IC50 in series [1] of 0.48 ± 0.13 nM.

In turn, `N#Cc1ccc(N(Cc2ccccc2)n2ccnc2)cc1` [Example 24, 4-[N-(1H-imidazol-1-yl)-N-(phenylmethyl)amino]benzonitrile] showed a melting point of 107 °C. In series [1], the IC50 is 0.18 ± 0.09 nM.

Consider `N#Cc1ccc(N(c2ccc(C#N)cc2C(F)(F)F)n2ccnc2)cc1` [Example 25, 4-[N-(1H-imidazol-1-yl)-N-(4-cyanophenyl)amino]-3-trifluoromethylbenzonitrile], for which the melting point was 166 °C. The concentration for half-maximal inhibition (IC50) in series [1] was 0.66 ± 0.14 nM.

`N#Cc1ccc(N(Cc2cccc(F)c2)n2ccnc2)cc1` [Example 26, 4-[N-(1H-imidazol-1-yl)-N-(3-fluorophenylmethyl)amino]benzonitrile] returned a melting point of 112 °C. This compound also registered an IC50 in series [1] of 0.13 ± 0.05 nM.

Regarding `COC(=O)c1ccc(CN(c2ccc(C#N)cc2)n2ccnc2)cc1` [Example 27, Methyl 4-[N-(4-cyanophenyl)-N-(1H-imidazol-1-yl)aminomethyl]benzoate], the melting point is 178 °C.

Regarding `N#Cc1ccc(N(c2ccc(F)cc2)n2ccnc2)cc1` [Example 28, 4-[N-(1H-imidazol-1-yl)-N-(4-fluorophenyl)amino]benzonitrile], the melting point stood at 113 °C. Half-maximal inhibition in series [1] (IC50) was put at 1.57 ± 0.74 nM.

On to `N#Cc1ccc(N(Cc2cccc(C(F)(F)F)c2)n2ccnc2)cc1` [Example 29, 4-[N-(1H-imidazol-1-yl)-N-(3-trifluoromethylphenylmethyl)amino]benzonitrile], for which the melting point is 122 °C. This compound registered an IC50 in series [1] of 0.19 ± 0.05 nM.

`Cc1cn(N(Cc2ccc(Br)cc2)c2ccc(C#N)cc2)cn1` [Example 30, 4-[N-(4-methyl-1H-imidazol-1-yl)-N-(4-bromophenylmethyl)amino]benzonitrile] returned a melting point of 152 °C. In addition, in series [1], half-maximal inhibition (IC50) required 1.16 ± 0.55 nM.

For `Cc1cncn1N(Cc1ccc(Br)cc1)c1ccc(C#N)cc1` [Example 31, 4-[N-(5-methyl-1H-imidazol-1-yl)-N-(4-bromophenylmethyl)amino]benzonitrile], the melting point is 152 °C. In series [1], this compound gave an IC50 of 0.58 ± 0.18 nM.

`Cc1ncn(N(Cc2ccc(Br)cc2)c2ccc(C#N)cc2)c1C` [Example 32, 4-[N-(4,5-dimethyl-1H-imidazol-1-yl)-N-(4-bromophenylmethyl)amino]benzonitrile] gave a melting point of 150 °C.
